Results taken from patent US9089570B2, “Compositions for treating cancers having acquired resitance to prior chemotherapeutic and targeted drugs using carboxyamidotriazole orotate” (TACTICAL THERAPEUTICS INC, priority 2013, dated 2015).

How the values were obtained:
[1] = system: refractory head and neck tumor (PI3KCA, E545K); assay: Phase I clinical study of CTO, patient with refractory head and neck cancer; format: in vivo, human; conditions: 285 mg/m2/day
From the text: “Progressive disease” is defined as an increase of 25% or greater in the product of the largest perpendicular diameters for at least one bidimensionally measurable tumor, or an increase of 25% or greater at least one undimensionally measurable tumor or appearance of a new lesion or clinical deterioration. […]

[2] = system: refractory NSCLC tumor (PI3KCA, E545K); assay: Phase I clinical study of CTO, patient with refractory NSCLC (PI3KCA, E545K); format: in vivo, human; conditions: 219 mg/m2/day
Protocol: (§1) This invention contemplates treating these cancers and other cancers at any stage from the discovery of the cancer to the advanced stage, starting with the first step of carrying out the genotyping of the primary and secondary tumors. The effectiveness of the CTO treatment is determined by controlled clinical studies. The cancers are evaluated by measuring tumors no more than 14 days before the start of the treatment, and evaluated after 2 cycles of 28 days after day 1 of the administration of the first dose of CTO. The tumor size is measured by the most accurate measurement such as PET-CT, CT scan, MRI scan, x-ray, ultrasound, etc. […]
(§2) “Partial response” means a) for bidimensionally measurable tumors, a decrease of at least 50% in the sum of the products of the largest perpendicular diameters of all measurable tumors as determined by two observations not less than four weeks apart, b) for undimensionally measurable tumors, a decrease by at least 50% in the sum of the largest diameters of all tumors as determined by two observation not less than four weeks apart. […]
In the present invention, a patient with NSCLC who had received prior treatment with paclitaxel, carboplatin erlotinib and docetaxel. […] After having established the baseline clinical parameters, the patient was given 219 mg/m2/day for a period of 28 days for two cycles and the tumor was measured. […]

[3] = system: refractory NSCLC tumor (EGFR, ELREATS 746-752 V (exon 19)); assay: Phase I clinical study of CTO, patient with refractory NSCLC (EGFR exon 19); format: in vivo, human; conditions: EGFR exon 19 mutation, 219 mg/m2/day
Protocol: as §1, with “etc. The criteria for evaluating response are described in the revised Response Evaluation Criteria in Solid Tumors Guidelines, Eisenhauer et al, 1990 and by the Macdonald Criteria for response to high grade gliomas, Macdonald et al, 1990.” for “etc.”
as §2

[4] = system: refractory metastatic colorectal cancer (BRAF V660E); assay: Phase I clinical study of CTO, patient with refractory metastatic colorectal cancer; format: in vivo, human; conditions: 285 mg/m2/day
Protocol: as §1, §2
After having established the baseline clinical parameters, the patient was given 285 mg/m2/day for a period of 28 days for two cycles and the tumor was measured. […]

[5] = system: refractory renal cell carcinoma; assay: Phase I clinical study of CTO, patient with refractory renal cell carcinoma; format: in vivo, human; conditions: 75 mg/m2/day
Protocol: as §1, §2
After having established the baseline clinical parameters, the patient was given 75 mg/m2/day for a period of 28 days for two cycles and the tumor was measured. […]

[6] = system: Akt and Erk1/2 phosphorylation; conditions: exosomes-stimulated HUVEC cell; Corrado et al, 2012; cited from earlier work
[7] = system: head and neck cancer; conditions: cited from earlier work
[8] = FOLFIRI (fluorouracil, leucovorin, irinotecan) regimen; Carrato et al 2013; cited from earlier work
[9] = system: imatinib mesylate-resistant chronic myeloid leukemia cells; conditions: by down-regulating bcr-abl, Alessandro et al, 2008; cited from earlier work

NC(=O)c1nnn(Cc2cc(Cl)c(C(=O)c3ccc(Cl)cc3)c(Cl)c2)c1N.O=C(O)c1cc(=O)[nH]c(=O)[nH]1 [CTO, carboxyamidotriazole orotate]
duration of stable disease and partial response ([1]; 28-day cycles): more than six
tumor response measured after two cycles ([1]; PI3KCA E545K, prior cetuximab, cisplatin, taxotere, 28 days, two cycles): responded by not progressing
duration of stable disease and partial response ([2]; 28-day cycles): more than twelve
tumor response measured after two cycles ([2]; prior paclitaxel, carboplatin, erlotinib, docetaxel, 28 days, two cycles): responded by not progressing
duration of stable disease and partial response ([3]; 28-day cycles): more than twelve
tumor response measured after two cycles ([3]; prior carboplatin, paclitaxel, docetaxel, erlotinib, cisplatin, gemcitamide, premetrexed, 28 days, two cycles): responded by not progressing
duration of stable disease and partial response ([4]; 28-day cycles): six
tumor response measured after two cycles ([4]; prior leucovorin, fluorouracil, oxaliplatin, bevacizumab, cetuximab, capecitabine, panitumumab, irinotecan, 28 days, two cycles): responded to CTO by not progressing
duration of stable disease and partial response ([5]; 28-day cycles, CTO continued): over twelve
tumor response measured after two cycles ([5]; prior IL-2, pegylated IFN, sorafenib, sunitnib, erlotinib, torisel, 28 days, two cycles): responded by not progressing
Akt and Erk1/2 phosphorylation [6]: inhibits

C#Cc1cccc(Nc2ncnc3cc(OCCOC)c(OCCOC)cc23)c1 [erlotinib]
improvement when added to chemotherapy and radiotherapy [7]: no improvement

CCN(CC)CCNC(=O)c1c(C)[nH]c(/C=C2\C(=O)Nc3ccc(F)cc32)c1C [Sunitnib]
superiority over FOLFIRI alone [8]: did not prove superior over FOLFIRI alone

NC(=O)c1nnn(Cc2cc(Cl)c(C(=O)c3ccc(Cl)cc3)c(Cl)c2)c1N [CAI, Carboxyamidotriazole]
apoptosis [9]: induces apoptosis
